Source: article PMC9995496, “A screen for MeCP2-TBL1 interaction inhibitors using a luminescence-based assay” (Scientific Reports, 2023)
Structures can show the parent of a compound that is named as a salt.

system: PRKACA-PRKAR2A interaction (SmBiT-PRKACA / LgBiT-PRKAR2A), protein kinase A; design: NanoLuc complementation counter-screen in cell extract, PRKACA with PRKAR2A, loss of luminescence, detects NanoLuc interference; conditions: 0.5 h, 20 µM; inhibitor

| Compound | Inh (PKA) |
| --- | --- |
| N[C@@H](Cc1ccc(N(CCCl)CCCl)cc1)C(=O)O [UM0132725:02, Melphalan] | 3.23 |
| CCOC(=O)c1cncn1[C@H](C)c1ccccc1 [UM0133274:02, Etomidate] | 13.38% |
| C/C=C/c1ccc2c(c1)OCO2 [UM0133473:02, Isosafrole] | 2.424% |

same assay, conditions: counter-screen for NanoLuc interference, 0.5 h, 20 µM, inhibitor, Inh (PKA)

| Compound | Inh (PKA) [%] |
| --- | --- |
| C#Cc1cccc(Nc2ncnc3cc(OCCOC)c(OCCOC)cc23)c1 [UM0130975:02, Erlotinib Hydrochloride] | 10.54 |
| CS(=O)(=O)N1CCN(Cc2cc3nc(-c4cccc5[nH]ncc45)nc(N4CCOCC4)c3s2)CC1 [UM0130976:02, GDC-0941] | 3.012 |
| Cc1ccc(NC(=O)c2ccc(CN3CCN(C)CC3)cc2)cc1Nc1nccc(-c2cccnc2)n1 [UM0130978:02, Imatinib Mesylate (STI571)] | 10.22 |
| CS(=O)(=O)CCNCc1ccc(-c2ccc3ncnc(Nc4ccc(OCc5cccc(F)c5)c(Cl)c4)c3c2)o1 [UM0130979:02, Lapatinib Ditosylate] | 54.72 |
| CNC(=O)c1cc(Oc2ccc(NC(=O)Nc3ccc(Cl)c(C(F)(F)F)c3)cc2)ccn1 [UM0130993:02, Sorafenib Tosylate] | 7.099 |
| COc1ccc2c3c1O[C@H]1C[C@@H](O)C=C[C@@]31CCN(C)C2 [UM0132882:02, Galanthamine HBr] | 0.1906 |
| CCOC(=O)C1=C[C@@H](OC(CC)CC)[C@H](NC(C)=O)[C@@H](N)C1 [UM0133352:02, Oseltamivir phosphate] | -0.5287 |
| O=c1c(O)c(-c2ccc(O)c(O)c2)oc2cc(O)cc(O)c12 [UM0133552:02, Quercetin dihydrate] | 33.9 |
| O=c1c(O)c(-c2ccc(O)c(O)c2)oc2cc(O)cc(O)c12 [UM0133552:03, Quercetin] | 26.1 |

same assay, conditions: counter-screen for NanoLuc interference; 0.5 h, 20 µM; inhibitor

| Compound | Inh (PKA) [%] |
| --- | --- |
| O=Nc1ccc(O)c2ncccc12 [UM0128576:03, NSC 3852] | 10.59 |
| COc1cc2c(NC3CCN(C(C)C)CC3)nc(C3CCCCC3)nc2cc1OCCCN1CCCC1 [UM0128581:02, UNC0638] | 0.9337 |
| CCN(c1cc(-c2ccc(CN3CCOCC3)cc2)cc(C(=O)NCc2c(C)cc(C)[nH]c2=O)c1C)C1CCOCC1 [UM0129937:03, EPZ-6438] | 4.351 |
| COc1cc2c(NC3CCN(C4CCCCC4)CC3)nc(N3CCCN(C(C)C)CC3)nc2cc1OCCCN1CCCCC1 [UM0129939:02, UNC 0646] | 0.2399 |
| Cn1cnc2c(F)c(Nc3ccc(Br)cc3Cl)c(C(=O)NOCCO)cc21 [UM0130968:04, AZD6244 (Selumetinib)] | 16.5 |
| O=C(NOCC1CC1)c1ccc(F)c(F)c1Nc1ccc(I)cc1Cl [UM0130972:02, PD184352 (CI-1040)] | 70.13 |
| COc1cc2nccc(Oc3ccc(NC(=O)NC4CC4)c(Cl)c3)c2cc1C(N)=O [UM0130973:02, Lenvatinib (E7080)] | 3.422 |
| Cn1cc(C2=C(c3cn(C4CCN(Cc5ccccn5)CC4)c4ccccc34)C(=O)NC2=O)c2ccccc21 [UM0130974:02, Enzastaurin (LY317615)] | 49.88 |
| CC(=O)Nc1cccc(-n2c(=O)n(C3CC3)c(=O)c3c(Nc4ccc(I)cc4F)n(C)c(=O)c(C)c32)c1 [UM0130977:03, Trametinib (GSK1120212)] | 2.214 |
| Nc1cccc2c1CN(C1CCC(=O)NC1=O)C2=O (centres unmarked) [UM0130980:03, Lenalidomide (CC-5013)] | -1.488 |
| NC1(c2ccc(-c3nc4ccn5c(=O)[nH]nc5c4cc3-c3ccccc3)cc2)CCC1 [UM0130983:02, MK-2206 dihydrochloride] | 6.14 |
| Cc1ccc(C(=O)Nc2cccc(C(F)(F)F)c2)cc1Nc1nc(-c2cccnc2)nc2c1cnn2C [UM0130987:02, NVP-BHG712] | 37.9 |
| CC(C)(C)c1cc(NC(=O)Nc2ccc(-c3cn4c(n3)sc3cc(OCCN5CCOCC5)ccc34)cc2)no1 [UM0130989:03, Quizartinib (AC220)] | 1.247 |
| COc1ccc(Cl)c(Nc2nc3ccccc3nc2NS(=O)(=O)c2cccc(NC(=O)C(C)(C)N)c2)c1 [UM0130997:02, XL147] | 61.81 |
| Cc1ccc(NC(=O)c2cccc(N(C)C)c2)cc1NC(=O)c1ccc(O)cc1 [UM0130998:02, ZM336372] | 21.08 |
| CCN(CC)CCCCNc1ncc2cc(-c3cc(OC)cc(OC)c3)c(NC(=O)NC(C)(C)C)nc2n1 [UM0131000:03, PD 173074] | 0.205 |
| COc1cc2nccc(Oc3ccc(NC(=O)Nc4ccc(F)cc4F)c(F)c3)c2cc1OC [UM0131001:04, Ki8751] | 5.997 |
| CCN(CC)CCOc1ccc(C(=C(Cl)c2ccccc2)c2ccccc2)cc1 [UM0132668:02, Clomiphene citrate] | 14.01 |
| Cn1ccnc1S [UM0132728:02, Methimazole] | 3.033 |
| CCCc1cc(=O)[nH]c(=S)[nH]1 [UM0132755:02, Propylthiouracil] | 1.031 |
| Cn1c(=O)c2nc[nH]c2n(C)c1=O [UM0132766:02, Theophylline] | -0.2913 |
| CNCCc1ccccn1 [UM0132794:02, Betahistine 2HCl] | 2.049 |
| COc1c(C)c2c(c(O)c1C/C=C(\C)CCC(=O)O)C(=O)OC2 [UM0132795:02, Mycophenolic acid] | 1.414 |
| O=c1ccc2cc(O)c(O)cc2o1 [UM0132846:02, 6,7-Dihydroxycoumarin] | 4.392 |
| CCOC(=O)[C@H](CCc1ccccc1)N[C@@H](C)C(=O)N1CCC[C@H]1C(=O)O [UM0132889:02, Enalapril Maleate] | -0.0661 |
| Nc1nc(=O)c2nc(CNc3ccc(C(=O)N[C@@H](CCC(=O)O)C(=O)O)cc3)cnc2[nH]1 [UM0132892:02, Folic acid] | 2.052 |
| CC(=O)/N=c1/sc(S(N)(=O)=O)nn1C [UM0132958:02, Methazolamide] | 0.8823 |

| Compound | Inh (PKA) [%] |
| --- | --- |
| CCN1CCN(c2cc3c(cc2F)c(=O)c(C(=O)O)cn3C2CC2)CC1 [UM0132985:02, Enrofloxacin] | 1.786 |
| C=CC[C@@H]1/C=C(\C)C[C@H](C)C[C@H](OC)[C@H]2O[C@@](O)(C(=O)C(=O)N3CCCC[C@H]3C(=O)O[C@H](/C(C)=C/[C@@H]3CC[C@@H](O)[C@H](OC)C3)[C@H](C)[C@@H](O)CC1=O)[C@H](C)C[C@@H]2OC [UM0132999:02, Tacrolimus (FK506)] | 15.44 |
| CC[C@H](C)C(=O)O[C@H]1C[C@@H](C)C=C2C=C[C@H](C)[C@H](CC[C@@H]3C[C@@H](O)CC(=O)O3)[C@H]21 [UM0133001:02, Lovastatin] | 15.39 |
| CS(=O)(=O)c1ccc(C2=C(c3ccccc3)C(=O)OC2)cc1 [UM0133054:02, Rofecoxib] | 1.384 |
| CCCCC1=NC2(CCCC2)C(=O)N1Cc1ccc(-c2ccccc2-c2nnn[nH]2)cc1 [UM0133057:02, Irbesartan] | 5.211 |
| CC1COc2c(N3CCN(C)CC3)c(F)cc3c(=O)c(C(=O)O)cn1c23 (centres unmarked) [UM0133058:02, Ofloxacin] | -0.3552 |
| Cc1ccc(=O)n(-c2ccccc2)c1 [UM0133133:02, Pirfenidone] | 0.9802 |
| CCOC(=O)[C@H](CCc1ccccc1)N[C@@H](C)C(=O)N1[C@H](C(=O)O)C[C@@H]2CCC[C@@H]21 [UM0133179:02, Ramipril] | 0.6461 |
| C/C=C1\[C@H]2C=C(C)C[C@]1(N)c1ccc(=O)[nH]c1C2 [UM0133189:02, (-)-Huperzine A] | 0.2799 |
| COc1ccc(-c2oc3c(CC=C(C)C)c(O[C@@H]4O[C@H](CO)[C@@H](O)[C@H](O)[C@H]4O)cc(O)c3c(=O)c2O[C@@H]2O[C@@H](C)[C@H](O)[C@@H](O)[C@H]2O)cc1 [UM0133190:02, Icariin] | 17.39 |
| CNCC[C@H](Oc1cccc2ccccc12)c1cccs1 [UM0133232:02, Duloxetine HCl] | 23.56 |
| CN(C/C=C/C#CC(C)(C)C)Cc1cccc2ccccc12 [UM0133235:02, Terbinafine HCl] | 7.743 |
| Oc1cc(Cl)ccc1Oc1ccc(Cl)cc1Cl [UM0133255:02, Triclosan] | 50.68 |
| CN1CC(=O)N2[C@H](c3ccc4c(c3)OCO4)c3[nH]c4ccccc4c3C[C@@H]2C1=O [UM0133276:02, Tadalafil] | 5.88 |
| CN(C)CCOc1ccc(/C(=C(/CCCl)c2ccccc2)c2ccccc2)cc1 [UM0133287:02, Toremifene Citrate] | 53.21 |
| CC(=O)NCCCS(=O)(=O)O [UM0133300:02, Acamprosate calcium] | 0.9397 |
| CSc1nc2cc(Cl)c(Oc3cccc(Cl)c3Cl)cc2[nH]1 [UM0133345:02, Triclabendazole] | 37.19 |
| O=C(N/N=C/c1ccc([N+](=O)[O-])o1)c1ccc(O)cc1 [UM0133346:02, Nifuroxazide] | 17.08 |
| O=C1CCc2ccc(OCCCCN3CCN(c4cccc(Cl)c4Cl)CC3)cc2N1 [UM0133361:02, Aripiprazole] | 19.63 |
| CC1=C(O)C(=O)C=C2C1=CC=C1[C@@]2(C)CC[C@@]2(C)[C@@H]3C[C@](C)(C(=O)O)CC[C@]3(C)CC[C@]12C [UM0133421:02, Celastrol] | 15.02 |
| Clc1ccc2c(c1)C(N1CCNCC1)=Nc1ccccc1O2 [UM0133517:02, Amoxapine] | 7.389 |
| Nc1ncn([C@@H]2O[C@H](CO)[C@@H](O)[C@H]2O)c(=O)n1 [UM0133525:02, 5-Azacytidine] | 1.069 |
| CN(Cc1cnc2nc(N)nc(N)c2n1)c1ccc(C(=O)N[C@@H](CCC(=O)O)C(=O)O)cc1 [UM0133539:02, Methotrexate] | 2.622 |
| NC(=O)N1c2ccccc2C=Cc2ccccc21 [UM0133618:02, Carbamazepine] | 3.187 |
| NS(=O)(=O)c1cc2c(cc1Cl)N=CNS2(=O)=O [UM0133622:02, Chlorothiazide] | 0.9686 |
| Cc1nnc(SCC2=C(C(=O)O)N3C(=O)[C@@H](NC(=O)Cn4cnnn4)[C@H]3SC2)s1 [UM0133624:02, Cefazolin (sodium salt)] | 0.1508 |
